Source: patent US9572760B2, “Uses of compounds and mixtures from Antrodia cinnamomea mycelia” (Simpson Biotech Co., Ltd., priority 2013, dated 2017)

What was measured:
cirrhotic animals = assay: Biochemical analysis of serum (liver damage parameters) in DEN cirrhotic animal model; assay type: in vivo, Wistar rats; conditions: compound B 7 mg/kg, compound C 14 mg/kg, ACM 320 mg/kg/day, gastric tube, 5th to 11th week, vs control group
Procedure: Samples of 1 ml blood were gathered from the retro-orbital plexus of each […] and immediately centrifuged at 1300×g at 4° C., plasma was kept at −20° C. for liver function tests. Alanine aminotranferease (ALT), aspartate aminotransferase (AST), total bilirubin and Gamma-glutamyl transpeptidase (γ-GT) levels were determined using commercial enzymatic kits with a colorimetric analyzer (Dri-Chem 3000, Fuji Photo Film Co, Tokyo, Japan).

[1] = tested on: TGFb1-treated immortalized HSC; assay: Profibrogenic gene expression in immortalized HSC with recombinant TGF-β treatment (qRT-PCR); assay type: cell-based, human; conditions: for Collagen-1 expression / TGF-β expression / TIMP-1 expression / αSMA expression: compounds 72 hours, then TGF-β (3 ng/ml) 48 hours
Text: The AML12 (mouse hepatocyte) cells were obtained from the BCRC (Bioresource Collection and Research Center) and cultured in Dulbecco's modified Eagle media (DMEM, Gibco by Invitrogen) with 1% antibiotic antimycotic (Gibco by Invitrogen) and 15% fetal bovine serum (Gibco by Invitrogen). The human Hepatic Stellate Cell, HSC cell line was obtained from the ScienCell Research Laboratory (USA) and cultured in complete medium, Stellate Cell Medium (ScienCell Research Laboratory) with 2% fetal bovine serum (ScienCell Research Laboratory), 1% stellate cell growth supplement (ScienCell Research Laboratory) and 1% penicillin/streptomycin solution (ScienCell Research Laboratory). […] For primary hepatic stellate cell isolation, C57BL/6 mice were anesthetized by intraperitoneal injection of ketamine and xylazine. […] Mouse livers were perfused in situ with 0.5 mM EGTA containing calcium-free salt solution (8 ml/min, 37° C. for 5 minutes), followed by perfusion with 2-step 0.05% collagenase D and pronase containing buffer (Roche Molecular Biochemicals, Indianapolis, Ind.) for 5 and 10 minutes, respectively. The harvested liver was minced gently on a Petri dish and additional incubation with protease containing buffer at 37° C. for 25 minutes. Then, the liver was filtered with 70 μm cell strainer. Cells were centrifuged and collected followed by 8.2% Nycodenz (Accurate Chemical and Scientific Corp.). The cell lines were cultured at 37° C. in a humidified atmosphere containing 5% CO2.
Exponentially growing cells were harvested and seeded in a 6-well microtiter plate. Each well of cells were collected to eppendrof in 1 mL of TRIzol buffer (Invitrogen, Carlsbad, Calif., USA), and then mixed with 0.5 mL chloroform/isoamyl alcohol (24:1), eppendrofs were centrifuged at 12,000×g for 10 min at 4° C. The supernatant was transferred to a fresh tube, and isopropanol was added, mix well and stored at −80° C. overnight. The reaction mixture was centrifuged at 12,000×g for 30 min at 4° C. to produce a rude RNA pallet, the pellet was washed with 70% ethanol and air-dried. The concentrations of total RNA were measured by absorbance at 260 nm using a NanoDrop ND-1000 (NanoDrop, USA).
Reverse transcription reaction was performed using a commercially available set of High Capacity RNA-to-cDNA Kit (Applied Biosystems, USA). cDNA was prepared from 2 μg of total RNA per 20 μl reaction, according to the manufacturer's instructions—37° C. for 60 minutes, 95° C. for 5 minutes, and hold at 4° C. The resulting cDNA was to a final concentration of 100 ng/μl and constituted a matrix in further experiments.
Amplification and detection the gene expression by real-time PCR were performed using StepOne plus Real-time PCR System (Applied Biosystems, USA). Samples were assayed in a 10 μl reaction mixture containing 2 μl of template DNA, 5 μl of 2× TaqMan PCR Master Mix (Applied Biosystems, Life Technologies, Foster City, Calif., USA), 0.5 μl of 20× assay mix containing probe, forward and reverse primer (Applied Biosystems, Life Technologies, Foster City, Calif., USA), whereby qPCR targets with the following information were used: (a) α-SMA, Assay ID Rn01759928_g1, (b) TIMP-1, Assay ID Rn00587558_m1, (c) TGF-β1, Assay ID Rn00572010_m1, (d) Collagen I, Assay ID Rn 01463838_m1, (e) GAPDH, Assay ID Rn1462662_g1. To control variation in mRNA concentration, all results were normalized to the housekeeping gene, GAPDH. Relative quantitation was performed using the comparative ΔΔCt method according to the manufacturer's instructions. The cycling conditions used were as follows: 50° C. for 2 min, 95° C. for 10 min followed by 40 cycles of 95° C. for 15 s and 60° C. for 1 min each. […]

SMILES | serum Alanine aminotranferease (ALT) level (cirrhotic animals) | serum Gamma-glutamyl transpeptidase (γ-GT) level (cirrhotic animals) | serum aspartate aminotransferase (AST) level (cirrhotic animals) | serum total bilirubin level (cirrhotic animals) | anti-fibrosis effect on immortalized HSC in response to TGF-β (summary) [1] | Collagen-1 expression [1] | TGF-β expression [1] | TIMP-1 expression [1] | αSMA expression [1]
CC(C)=CCOc1ccc(C2=C(CC(C)C)C(=O)NC2=O)cc1 [Compound B, 3-isobutyl-4-[4-(3-methyl-2-butenyloxy)phenyl]-1H-pyrrol-2,5-dione] | significantly reduced | significantly reduced | significantly reduced | significantly reduced | anti-fibrosis effect | dose-dependent effect | dose-dependent effect | dose-dependent effect | dose-dependent effect
CC(C)=CCOc1ccc(C2=C(CC(C)C)C(=O)N(O)C2=O)cc1 [Compound C, 3-isobutyl-4-[4-(3-methyl-2-butenyloxy)phenyl]-1H-pyrrol-1-ol-2,5-dione] | significantly reduced | significantly reduced | significantly reduced | significantly reduced | anti-fibrosis effect | dose-dependent effect | dose-dependent effect | dose-dependent effect | dose-dependent effect
